Laboratory results reported in patent US5135932A, “2-hydroxypropylamino-alkyl-benzimidazoly-5-yl derivatives and their use in the treatment of heart disease” (Dr. Karl Thomae GmbH, priority 1989, dated 1992).

Experiments:
[1] = biological target: T1, β1 adreno receptor (rat hearts) (Rattus norvegicus, UniProt P18090); experiment: Affinity for β-adreno receptors: inhibition of 3H-CGP 12177 binding, receptor preparations from rat hearts (β1); settings: 200 pM 3H-CGP 12177
T1 construct: receptor preparations from rat hearts (β1); from tissue; host or cells: rat heart membrane preparation
Description: (§1) 1. Affinity for β-adreno recectors
(§2) The inhibitory effect on the binding of ^3 H-CGP 12177 was tested on receptor preparations from rat hearts (β1) and rat lungs (β2). The binding assay was carried out with some modifications according to the method of Dammgen et al. (Drug. Res. 35: 383-390 (1985)). The incubation mixture contained aliquots of the membrane preparation in Tris buffer, increasing concentrations of the potential antagonist as well as 200 pM ^3 H-CGP 12177. The bound and free radioligands were separated after the incubation period by rapid filtration through glass fibre filters. The filter-bound radioactivity was determined in a β counter with a counting yield of about 52%. The non-specific binding was determined in the presence of 10^-5 M propranolol.

[2] = test system: Guinea-pigs (Dunkin-Hartley-Pirbright, male); experiment: Cardiotonic effect: LV-dP/dtmax and heart rate in anaesthetised guinea-pigs; type: in vivo, guinea-pig; settings: after a dose of 3 mg/kg i.v., averages from 2 to 3 tests; for change in vivo at 3 mg/kg: Cavia porcellus, iv, read-out: Effects on LV-dP/dtmax % increase
Description: (§3) Cardiotonic effect with antiadrenergic activity
(§4) Guinea-pigs (Dunkin-Hartley-Pirbright, male, 450-600 g) were anaesthetised with hexobarbital-sodium (150 mg/kg i.p.). After the animals had become unconscious, a tracheal cannula was inserted and the animals were pitched (van Meel, J. Pharmacol. Methods 31 (1): 1-11 (1985)). The animals were then immediately artificially respirated using a breathing pump. The left ventricular pressure (LVP) was measured with a Millar PR-249 catheter-tip manometer inserted into the left ventricle through the left carotid artery. This pressure signal was differentiated electronically (LV-dP/dtmax) and used as a parameter for inotropia. The arterial blood pressure was recorded by a cannula in the right carotid artery using a Bell & Howell pressure recorder. The heart rate was also measured. The substances were administered through a cannula in the jugular vein.
(§5) The test substances were administered to three animals cumulatively in four doses (0.1 to 3 mg/kg) and the effects on blood pressure, heart rate and LV-dP/dtmax were measured. Three minutes after the last dose of the test substance, isoprenalin was administered intravenously in increasing doses. In this way, a cumulative dose-activity correlation was obtained for isoprenalin in the presence of the test substance. The parameters measured were the increase in heart rate and the LV-dP/dtmax. These dose-activity curves were compared with standard curves for isoprenalin without the test substances. The shift to the right of the dose-activity curves for isoprenalin brought about by the test substances were determined graphically and corresponding pA2 values for the test substances were calculated. (see Tenakin in "Pharmacologic Analysis of Drug Receptor Interaction", Rawen Press 1987, pages 211-212).
(§6) The Table which follows contains the averages from 2 to 3 tests: […]

[3] = biological target: T2, β2 adreno receptor (rat lungs) (Rattus norvegicus, UniProt P10608); experiment: Affinity for β-adreno receptors: inhibition of 3H-CGP 12177 binding, receptor preparations from rat lungs (β2); settings: 200 pM 3H-CGP 12177
T2 construct: rat lungs (β2); from tissue; host or cells: rat lung membrane preparation
Description: as §1, §2

[4] = Antiadrenergic activity: shift of isoprenalin dose-activity curves in guinea-pigs (pA2); type: in vivo, guinea-pig; settings: averages from 2 to 3 tests; for pA2 heart rate: against heart rate-increasing activity of isoprenalin; for pA2 inotropia: against inotropic activity of isoprenalin (LV-dP/dtmax)
Description: as §3, §4, §5, §6

T1 sequence (P18090 whole entry): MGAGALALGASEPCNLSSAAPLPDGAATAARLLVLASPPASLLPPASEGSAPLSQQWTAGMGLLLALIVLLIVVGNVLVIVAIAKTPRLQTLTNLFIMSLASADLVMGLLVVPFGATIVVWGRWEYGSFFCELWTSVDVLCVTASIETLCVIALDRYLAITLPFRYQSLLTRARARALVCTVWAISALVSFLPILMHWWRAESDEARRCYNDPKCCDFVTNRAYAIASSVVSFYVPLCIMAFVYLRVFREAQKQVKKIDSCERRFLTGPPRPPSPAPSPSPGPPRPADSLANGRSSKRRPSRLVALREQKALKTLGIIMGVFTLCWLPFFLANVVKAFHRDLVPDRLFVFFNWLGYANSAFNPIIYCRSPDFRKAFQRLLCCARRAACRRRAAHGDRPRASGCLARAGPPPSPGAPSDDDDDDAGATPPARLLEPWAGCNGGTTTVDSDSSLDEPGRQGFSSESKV
T2 sequence (P10608 whole entry): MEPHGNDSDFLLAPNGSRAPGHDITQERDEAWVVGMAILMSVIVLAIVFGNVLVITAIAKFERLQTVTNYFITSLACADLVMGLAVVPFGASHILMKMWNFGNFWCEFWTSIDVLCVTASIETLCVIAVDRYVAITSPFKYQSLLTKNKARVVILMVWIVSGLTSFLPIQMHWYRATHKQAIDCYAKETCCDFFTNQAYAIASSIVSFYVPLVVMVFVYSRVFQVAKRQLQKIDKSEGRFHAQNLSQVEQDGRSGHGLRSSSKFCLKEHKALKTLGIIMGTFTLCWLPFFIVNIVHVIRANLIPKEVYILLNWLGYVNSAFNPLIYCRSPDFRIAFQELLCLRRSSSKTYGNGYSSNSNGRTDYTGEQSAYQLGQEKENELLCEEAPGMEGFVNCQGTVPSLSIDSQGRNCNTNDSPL

IC50 [1] [nM]	IC50 [3] [nM]	SMILES	change in vivo at 3 mg/kg [2] [%]	Effect on heart rate in beats per minute [2] [beats per minute]	pA2 heart rate [4]	pA2 inotropia [4]
26	940	O=C1CCC(c2ccc3c(c2)ncn3CCNCC(O)COc2ccc(CCOCC3CCC3)cc2)=NN1 (centres unmarked) [Substance A, 6-[1-[2-[3-(4-(2-cyclobutylmethoxy-ethyl)phenoxy)-2-hydroxy-propylamino]ethyl]benzimidazol-5-yl]-4,5-dihydro-3(2H)-pyridazinone]	50	-23	8.20	6.30
34	2300	O=C1CCC(c2ccc3c(c2)ncn3CCNCC(O)COc2ccc(CCOCC3CC3)cc2)=NN1 (centres unmarked) [Substance B, 6-[1-[2-[3-(4-(2-cyclopropylmethoxy-ethyl)phenoxy)-2-hydroxy-propylamino]ethyl]benzimidazol-5-yl]-4,5-dihydro-3(2H)-pyridazinone]	51	-47	6.95	6.83
29	1200	O=C1CCC(c2ccc(OCCNCC(O)COc3ccc(CCOCC4CC4)cc3)cc2)=NN1 (centres unmarked) [Substance C, 6-[4-[2-[3-(4-(2-cyclopropylmethoxy-ethyl)phenoxy)-2-hydroxy-propylamino]ethoxy]phenyl]-4,5-dihydro-3(2H)-pyridazinone]	25	-51	7.22	6.76
22	1000	O=c1ccc(-c2ccc(OCCNCC(O)COc3ccc(CCOCC4CC4)cc3)cc2)n[nH]1 (centres unmarked) [Substance D, 6-[4-[2-[3-(4-(2-cyclopropylmethoxyethyl)phenoxy)-2-hydroxy-propylamino]ethoxy]phenyl]-3(2H)-pyridazinone]	51	-49	7.24	6.67
15	1100	O=C1CCC(c2ccc(OCCNCC(O)COc3ccc(CCOCC4CCC4)cc3)cc2)=NN1 (centres unmarked) [Substance E, 6-[4-[2-[3-(4-(2-cyclobutylmethoxy-ethyl)phenoxy)-2-hydroxy-propylamino]ethoxy]phenyl]-4,5-dihydro-3(2H)-pyridazinone]	49	-71	7.23	6.19
24	7200	CC(C)OCCOCc1ccc(OCC(O)CNCCOc2ccc(C3=NNC(=O)CC3)cc2)cc1 (centres unmarked) [Substance F, 6-[4-[2-[3-(4-((2-isopropoxyethoxy)methyl)phenoxy)-2-hydroxy-propylamino]ethoxy]phenyl]-4,5-dihydro-3(2H)-pyridazinone]	37	-94	6.96	7.14
53	4400	CC(C)OCCOCc1ccc(OCC(O)CNCCOc2ccc(-c3ccc(=O)[nH]n3)cc2)cc1 (centres unmarked) [Substance G, 6-[4-[2-[3-(4-(2-isopropoxyethoxymethyl)phenoxy)-2-hydroxypropylamino]ethoxy]phenyl]-3(2H)-pyridazinone]	38	-36	6.38	6.32
10	19	CC(C)COCCc1ccc(OCC(O)CNCCCn2cnc3cc(C4=NNC(=O)CC4)ccc32)cc1 (centres unmarked) [Substance H]	10	-90	> 9.0	8.28
10	350	CC(C)OCCOCc1ccc(OCC(O)CNCCCOc2ccc(C3=NNC(=O)CC3)cc2Cl)cc1 (centres unmarked) [Substance K, 6-[4-[3-[3-(4-(2-isopropoxyethoxy-methyl)phenoxy)-2-hydroxy-propylamino]propoxy]-3-chloro-phenyl]-4,5-dihydro-3(2H)-pyridazinone]	11	-121	7.52	6.56
7.6	600	CC(C)OCCOCc1ccc(OCC(O)CNCCOc2ccc(C3=NNC(=O)CC3)cc2Cl)cc1 (centres unmarked) [Substance L, 6-[4-[2-[3-(4-(2-isopropoxyethoxy-methyl)phenoxy)-2-hydroxy-propylamino]ethoxy]-3-chloro-phenyl]-4,5-dihydro-3(2H)-pyridazinone]	66	-51	6.77	6.23
0.5	100	Cc1cc(C2=NNC(=O)CC2)ccc1OCCNCC(O)COc1ccc(CCOCC2CC2)cc1 (centres unmarked) [Substance M, 6-[4-[2-[3-(4-(2-cyclopropylmethoxy-ethyl)phenoxy)-2-hydroxy-propylamino]ethoxy]-3-methyl-phenyl]-4,5-dihydro-3(2H)-pyridazinone]	51	-64	8.20	7.05
2.6	520	Cc1cc(C2=NNC(=O)CC2)ccc1OCCNCC(O)COc1ccc(COCCOC(C)C)cc1 (centres unmarked) [Substance N, 6-[4-[2-[3-(4-(2-isopropoxyethoxy-methyl)phenoxy)-2-hydroxy-propylamino]ethoxy]-3-methyl-phenyl]-4,5-dihydro-3(2H)-pyridazinone]	34	-94	8.34	7.34
59	66	Cc1cc(C2=NNC(=O)CC2)ccc1OCCCNCC(O)COc1ccc(CCOCC2CC2)cc1 (centres unmarked) [Substance O, 6-[4-[3-[3-(4-(2-cyclopropylmethoxy-ethyl)phenoxy)-2-hydroxy-propylamino]propoxy]-3-methyl-phenyl]-4,5-dihydro-3(2H)-pyridazinone]	38	-116	7.70	6.44
6	220	Cc1cc(C2=NNC(=O)CC2)ccc1OCCCNCC(O)COc1ccc(CCOCC2CCC2)cc1 (centres unmarked) [Substance P, 6-[4-[3-[3-(4-(2-cyclobutylmethoxy-ethyl)phenoxy)-2-hydroxy-propylamino]propoxy]-3-methyl-phenyl]-4,5-dihydro-3(2H)-pyridazinone]	69	-61	6.45	5.31
2	210	Cc1cc(-c2ccc(=O)[nH]n2)ccc1OCCNCC(O)COc1ccc(COCCOC(C)C)cc1 (centres unmarked) [Substance Q, 6-[4-[2-[3-(4-(2-isopropoxyethoxy-methyl)phenoxy)-2-hydroxy-propylamino]ethoxy]-3-methyl-phenyl]-3(2H)-pyridazinone]	–	–	–	–

SMILES	IC50 [1] [nM]	IC50 [3] [nM]	change in vivo at 3 mg/kg [2] [%]	Effect on heart rate in beats per minute [2] [beats per minute]	pA2 heart rate [4]	pA2 inotropia [4]
CC(C)COCCc1ccc(OCC(O)CNC(C)(C)Cn2cnc3cc(C4=NNC(=O)CC4)ccc32)cc1 (centres unmarked) [Substance I, 6-[1-[2-[3-(4-(2-isobutoxyethyl)phenoxy)-2-hydroxypropylamino]-2,2-dimethyl-ethyl]benzimidazol-5-yl]-4,5-dihydro-3(2H)-pyridazinone]	12	65	58	-59	7.89	7.17
